The term EC50 denotes the concentration at which the effect is half-maximal.

For data set [1], the target named is T1, ΔF508 CFTR (Homo sapiens, UniProt P13569, DEL508-508). The data set can be described thus: Screening protocol: surface expression of 3HA-tagged ΔF508 CFTR in BHK cells (anti-HA immunofluorescence plate assay). Also on record: expressed in transfected cells; host or cells: BHK cells. The settings on record: for EC50: concentrations between 100 μM and 1 pM, FIG. 2. Format: cell-based. How it is done: BHK cells expressing 3HA-tagged ΔF508 CFTR between passages 5-8 were seeded in 96-well plates (Corning half area, black-sided, clear bottom) at 15,000 cells per well and incubated with culture medium for 24 h at 37° C. […] The remaining 16 wells on each plate were used for control conditions. Cells were fixed in a 2% Para-formaldehyde solution, washed with PBS, and blocked with PBS containing 5% fetal bovine serum (FBS) for 1 h at 4° C.
T1 sequence (P13569 with tags, fused parts or gaps DEL508-508): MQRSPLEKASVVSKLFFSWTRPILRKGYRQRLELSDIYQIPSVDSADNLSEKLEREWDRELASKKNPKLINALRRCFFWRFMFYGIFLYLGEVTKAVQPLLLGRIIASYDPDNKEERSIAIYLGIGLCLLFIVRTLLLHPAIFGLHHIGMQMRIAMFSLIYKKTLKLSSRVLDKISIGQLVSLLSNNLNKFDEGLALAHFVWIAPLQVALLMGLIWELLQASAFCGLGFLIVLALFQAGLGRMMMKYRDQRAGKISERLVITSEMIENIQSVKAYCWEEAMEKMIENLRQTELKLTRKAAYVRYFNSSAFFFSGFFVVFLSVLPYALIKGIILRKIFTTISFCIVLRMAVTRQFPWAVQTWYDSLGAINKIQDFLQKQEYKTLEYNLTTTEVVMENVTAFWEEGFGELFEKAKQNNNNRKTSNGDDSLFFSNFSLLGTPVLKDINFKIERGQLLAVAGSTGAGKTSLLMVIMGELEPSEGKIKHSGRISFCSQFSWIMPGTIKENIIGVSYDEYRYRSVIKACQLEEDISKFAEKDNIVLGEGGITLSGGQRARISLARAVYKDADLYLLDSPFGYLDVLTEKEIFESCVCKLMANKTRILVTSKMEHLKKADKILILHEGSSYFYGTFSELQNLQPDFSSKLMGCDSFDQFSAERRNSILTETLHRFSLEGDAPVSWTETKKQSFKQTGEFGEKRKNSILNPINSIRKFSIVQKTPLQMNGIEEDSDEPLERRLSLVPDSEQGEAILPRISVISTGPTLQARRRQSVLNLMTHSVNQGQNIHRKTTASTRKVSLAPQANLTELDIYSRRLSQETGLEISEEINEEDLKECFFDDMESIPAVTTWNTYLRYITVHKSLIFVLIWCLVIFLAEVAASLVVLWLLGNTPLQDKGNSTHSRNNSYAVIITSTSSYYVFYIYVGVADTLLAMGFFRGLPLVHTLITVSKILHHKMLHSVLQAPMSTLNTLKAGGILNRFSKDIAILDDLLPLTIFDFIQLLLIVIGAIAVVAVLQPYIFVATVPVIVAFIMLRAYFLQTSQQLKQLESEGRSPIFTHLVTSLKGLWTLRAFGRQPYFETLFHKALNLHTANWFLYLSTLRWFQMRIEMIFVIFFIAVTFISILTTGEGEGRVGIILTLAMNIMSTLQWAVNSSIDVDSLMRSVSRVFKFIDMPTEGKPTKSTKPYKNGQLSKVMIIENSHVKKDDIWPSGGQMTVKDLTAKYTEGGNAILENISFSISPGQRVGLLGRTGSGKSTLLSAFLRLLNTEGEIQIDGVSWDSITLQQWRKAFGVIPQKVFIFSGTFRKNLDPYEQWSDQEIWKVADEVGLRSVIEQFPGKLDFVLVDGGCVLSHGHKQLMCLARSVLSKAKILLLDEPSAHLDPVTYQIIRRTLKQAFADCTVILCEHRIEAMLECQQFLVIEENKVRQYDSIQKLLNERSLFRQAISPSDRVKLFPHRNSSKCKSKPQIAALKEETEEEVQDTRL
Blocking solution was replaced with 15 μl of primary antibody solution containing 1% FBS and mouse monoclonal anti-HA antibody (1:150 dilution, Sigma) in PBS. The plates were sealed and left at 4° C. overnight. After three washes with 100 μl PBS, cells were incubated for 1 h with 15 μl of secondary antibody solution containing 1% FBS and anti-mouse IgG conjugated with FITC (1:100 dilution, Sigma) in PBS. Cells were again washed three times with 100 μl of PBS and analyzed in a plate reader (Analyst™ HT96.384, Biosystems) (488 nm excitation, 510 nm emission). Hits were defined as those compounds giving fluorescence at least three standard deviations higher than untreated controls. The mean fluorescence of four untreated wells was used as the background signal when calculating deviations of the 80 compound-treated wells. Hits were then cherry-picked into reservoir plates and re-tested in duplicate using the same assay. Compounds that consistently give signals that were three standard deviations above untreated controls and were not intrinsically fluorescent were considered validated and studied further.

Data set [2] concerns panel of human cancer lines. Put plainly: Cytotoxicity assays against a panel of human cancer lines. It is filed as cell-based.
The next data set has as its system panel of protein kinases. The data set can be described thus: Enzyme inhibition against a panel of protein kinases. Format: biochemical.
The target in another data set is T2, F508del-CFTR (Homo sapiens, UniProt P13569, DEL508-508).
T2 construct: expressed in transfected cells; host or cells: BHK cells
T2 sequence (P13569 with tags, fused parts or gaps DEL508-508): as above
The data set can be described thus: Immunofluorescence/confocal microscopy: cell surface CFTR (overlap with wheat germ agglutinin) in BHK cells expressing F508del-CFTR. It is filed as cell-based. The conditions noted are these: 10 μM, 24 hours, FIG. 3. As to the method: BHK cells expressing F508del-CFTR were treated with 10 μM of the latonduines for 24 hours and then immunostained for CFTR and imaged by confocal microscopy (photomicrograph data not shown).
Cells were seeded onto 1 cm diameter glass coverslips (5000 per coverslip) and incubated overnight, then treated with compound and fixed in 2% Para formaldehyde. After fixation, cells were blocked using (5% FBS in PBS) for 1 hour at 4° C. The coverslips were then washed in PBS and incubated with primary antibody solution (1% FBS in PBS with 1:200 dilution mouse anti-CFTR antibody (Chemicon) for 2 hours at room temperature (0.05% Tween-20 was added to the blocking solution when staining of intracellular CFTR was required). Coverslips were washed four times in PBS and probed with secondary antibody solution (1% FBS in PBS plus goat anti-mouse Alexa 568 conjugated antibody at 1:1000 dilution) for 1 h at room temperature in the dark. The cells were then washed three times with PBS. The coverslips were then mounted on slides using an antifade mounting solution (Permamount) for confocal microscopy.
Analysis was done using the ImageJ system using 120-150 cells per sample in six fields. […]
The cell surface was identified using wheat germ agglutinin and the amount of cell surface CFTR measured (FIG. 3). […]

Data set [3] addresses T1, ΔF508 CFTR. Put plainly: Iodide efflux assay in CFBE cells expressing ΔF508-CFTR. It is filed as cell-based. The arrangement: endogenous in cells; host or cells: CFBE cells (human lung epithelial cells from a CF patient). The conditions noted are these: CFBE cells (human lung epithelia of a cystic fibrosis patient); FIG. 5B. How it is done: Experiments were performed by hand or with a robotic liquid handling system (BioRobot 8000, Qiagen, USA) using Qiagen 4.1 software. Cells were cultured in 24-well plates until they reached confluence in order to perform parallel experiments and comparison analysis. After treatment or not with a test compound, the medium of each well was replaced with 1 ml of iodide loading buffer (in mM: 136 NaI, 3 KNO3, 2 Ca(NO3)2, 11 glucose and 20 Hepes pH 7.4) for 1 hour at 37° C. to permit the I− to reach equilibrium. At the beginning of each experiment, the loading buffer was removed by aspiration and cells were washed eight times with efflux buffer (same as loading buffer except that NaI was replaced with 136 mM NaNO3) to remove extracellular I^− in each well. The loss of intracellular I^− was determined by removing the medium with efflux buffer every 1 min for up to 11 min. The first four aliquots were recovered at 1-minute intervals in an empty 24-well plate and used to establish a stable baseline in efflux buffer alone. […] The iodide concentration of each aliquot was determined using an iodide-sensitive electrode (Orion Research Inc., Boston, Mass., USA or Ecomet) and converted to iodide content (i.e. the amount of iodide released during the 1 min interval). […]

For data set [4], the target named is T1, ΔF508 CFTR. The data set can be described thus: Immunoblotting analysis of biosynthetic processing of ΔF508-CFTR in BHK cells. It is filed as cell-based. The arrangement: expressed in transfected cells; host or cells: BHK cells. As to the method:
The effects of the latonduines on the biosynthetic processing of ΔF508-CFTR, latonduine treatment was assayed by immunoblotting analysis (FIGS. 4A and B).
Cell lysates were quantitated by Bradford assay (BioRad) and separated by SDS-PAGE (6% polyacrylamide gels) and analyzed by Western blotting. Western blots were blocked using 5% skimmed milk in PBS, then were probed overnight at 4° C. with a primary anti-CFTR antibody at a dilution of 1:1000 monoclonal mouse antibody (Chemicon). The blots were washed four times in PBS before the addition of the secondary HRP-conjugated anti-mouse antibody, at a dilution of 1:5000 (Amersham) for one hour at room temperature. The blots were washed five times in PBS and probed for chemiluminescence (Pierce). All samples were run with equal protein loading as determined using the Bradford assay (Biorad). Densitometry of the immunoblots were performed using the ImageJ program.
(In western blotting, separated proteins are transferred to a membrane and probed.)

As for `Nc1ncc2c(n1)-c1c([nH]c(Br)c1Br)C(=O)NC2` [isolatonduine], on ΔF508 CFTR [1] (24-hour treatment, 10 μM, FIGS. 1 and 6), the “response in the screening protocol (surface expression of ΔF508 CFTR)” value is on record as “positive response”.
On to `COC(=O)c1nc(N)nc2c1-c1c([nH]c(Br)c1Br)C(=O)NC2` [latonduine B methyl ester], for which the cytotoxicity entry in data set [2] was “inactive”. For the same compound, the enzyme inhibition result with panel of protein kinases is “inactive”. Besides, the midpoint of the response on ΔF508 CFTR [1], the EC50, lay at 25 nM.
With `CCOC(=O)c1nc(N)nc2c1-c1c([nH]c(Br)c1Br)C(=O)NC2` [latonduine B ethyl ester], at F508del-CFTR, the “cell surface CFTR, % of the amount of wild-type CFTR plasma membrane signal” value was determined as 51%. Also, in data set [2], the cytotoxicity result was “inactive”. In the data set with panel of protein kinases, the enzyme inhibition result was “inactive”. The same compound registered an EC50 at ΔF508 CFTR [1] of 0.5 nM. Besides, the “functional ΔF508-CFTR ion channels, iodide efflux” value at ΔF508 CFTR [3] is “can act as correctors of ΔF508-CFTR giving functional ion channels on the cell surface”.
Regarding `Nc1nc2c(c(C(=O)O)n1)-c1c([nH]c(Br)c1Br)C(=O)NC2` [latonduine B], the cytotoxicity entry in data set [2] was “inactive”. The enzyme inhibition entry in the data set with panel of protein kinases is “inactive”.
For `Nc1ncc2c(n1)CNC(=O)c1[nH]c(Br)c(Br)c1-2` [latonduine A], at F508del-CFTR, the “cell surface CFTR, % of the amount of wild-type CFTR plasma membrane signal” value was 29%. Besides, in data set [2], the cytotoxicity result is “inactive”. For the same compound, in the data set with panel of protein kinases, the enzyme inhibition result is “inactive”. On ΔF508 CFTR [1], the EC50 was determined as 0.4 nM. Further, the “surface expression, % of that observed in cells expressing wild-type CFTR” value on ΔF508 CFTR [4] (F508del-CFTR, stated in Example III) is “about 25%”. In addition, the “share of F508del-CFTR that was complex-glycosylated” value at ΔF508 CFTR [4] (cells treated with the compound, densitometry of immunoblot) was “Up to 30%”.

For the origin of these results see patent US20100280004A1, “SMALL MOLECULE CORRECTORS OF DELTAF508 CFTR TRAFFICKING” (The University of British Columbia and The Royal …, priority 2007, published 2010).
